Test results as given in patent US4390526A, “Pharmaceutical agents for the treatment of sickle cell disease” (Yeda Research & Development Co. Ltd., priority 1979, dated 1983).
Where a SMILES comes first, the peptide text is derived from it.

Columns and labels:
erythrocytes [1] = conditions: literature values, Table II; cited from earlier work
[2] = tested on: erythrocytes of a sickle cell disease patient; experiment: Inhibition of sickling; type: cell-based, human; conditions: 30 minutes, deoxygenated with sodium metabisulphite
Experimental: A venous blood sample was obtained from the anticubital vein of a sickle cell disease patient and washed several times with phosphate buffer saline, pH 7.2, consisting of 145.4 mM NaCl, 4.0 mM KCl, 1.65 mM Na2 HPO4, 0.16 mM KH2 PO4, 0.01 mM MgCl2 and 11.1 mM glucose. The buffy coats were removed by aspiration. […] The mixture was well stoppered, incubated at 37° C. and swirled at about 100 cycles per minute in a controlled environment incubator. The standard control consisted of a 300 μl of a 20% cell suspension in the buffer in which the novel compound was dissolved. After an incubation period, 20 μl of the treated cell suspension was deoxygenated with 20 μl of 2.0% sodium metabisulphite or with nitrogen gas and examined with a Zeiss microscope.
[…] They were deoxygenated with sodium metabisulphite and examined under a Zeiss microscope.

purified HbS = target: T1, purified HbS (Homo sapiens, UniProt P68871, E7V); experiment: Determination of antigelling property (modified method of Bookchin et al.); type: biochemical; conditions: deoxygenated with sodium dithionite, 37° C.; antigelling = fluid state for more than 20 minutes
T1 construct: 150 μl of 35% of purified HbS were added and vortexed; from tissue
Experimental: The antigelling property of the said new class of compounds was determined by a modified method of Bookchin et al. (1967); (see Bookchin et al, J. Biol. Chem., 242, 248-255, 1967). To 10 μl of a solution of the said new class of compounds in a micro test tube, at about 37° C., 150 μl of 35% of purified HbS were added and vortexed. 15 microliters of a 10% sodium dithionite in 0.05 M phosphate buffer, pH 7.2 were added. The mixture was thoroughly mixed and flushed with nitrogen and quickly stoppered. The micro test tube was incubated at 37° C. for 30 minutes and then transferred to 0° C. for 10 minutes and then returned to 37° C. for 30 minutes. A compound was defined as having antigelling properties when the HbS inhibition mixture remained in the fluid state for a period of more than 20 minutes at 37° C.

erythrocytes [3] = experiment: Transport of the novel compounds into erythrocytes; type: cell-based, human
Experimental: As sickle cell disease is caused by a defect of the erythrocytes, in order to study transport of a therapeutic agent for the treatment of the disease into erythrocytes, erythrocytes and no other cells must be used for the transport studies.
Washed erythrocytes were prepared by the method described in Example 2 and used for transport studies. The novel class of compounds were radioactively labelled, using for example, [^14 C]-L-Phe.

Structure (SMILES) | Effective Concentration In Vitro (antisickling) (erythrocytes [1]) [mM] | Percentage of Normal Cells ([2]; 3 mM of the compound) [%] | other results
O=CC(O)CO (racemic) [DL--Glyceraldehyde] | 20 | – | –
O=C(Nc1ccccn1)c1ccccc1.O=C(O)c1ccccc1 [2(Benzoyl amino) pyridinium benzoate] | 50 | – | –
CC1(C)CCc2cc(CCCC(=O)O)ccc2O1 [3,4-dihydro-2,2-dimethyl 2H-1 Benzopyridirium-6-butyric acid] | 10 | – | –
Cl.N[C@@H](Cc1ccccc1)C(=O)OCc1ccccc1 [Compound 1, L--Phe--OBz.HCl] | – | 90 | moles of compound to one mole of HbS at which gelation of HbS is inhibited (purified HbS): 6 moles to one mole HbS; transport into erythrocytes (erythrocytes [3]): rapidly transported into erythrocytes by a carrier mediated process; Michaelis constant for transport (erythrocytes [3]; 14C-labelled compound, washed erythrocytes): 0.175 mM; PERCENT OF INCORPORATION (erythrocytes [3]; TIME 0): 0%; PERCENT OF INCORPORATION (erythrocytes [3]; TIME 10): 30%; PERCENT OF INCORPORATION (erythrocytes [3]; TIME 20): 70%; PERCENT OF INCORPORATION (erythrocytes [3]; TIME 30): 90%; PERCENT OF INCORPORATION (erythrocytes [3]; TIME 45): 100%; PERCENT OF INCORPORATION (erythrocytes [3]; TIME 60): 90%
Cl.N[C@@H](Cc1ccc(O)cc1)C(=O)OCc1ccccc1 [Compound 2, L--Tyr--OBz.HCl] | – | – | Percentage of Normal Cells ([2]; 0.5 mM of compound): 70%
Cl.N[C@@H](Cc1c[nH]c2ccccc12)C(=O)OCc1ccccc1 [Compound 3, L--Try--OBz.HCl] | – | – | Percentage of Normal Cells ([2]; 0.5 mM of compound): 95%; moles of compound to one mole of HbS at which gelation of HbS is inhibited (purified HbS): 4 moles to one mole HbS
Cl.O=C(OCc1ccccc1)[C@@H]1CCCN1 [Compound 4, L--Pro--OBz.HCl] | – | 60 | –
Br.N[C@@H](Cc1ccccc1)C(=O)OCc1ccc([N+](=O)[O-])cc1 [Compound 6, L--Phe--OBz (pNO2).HBr] | – | 90 | –
Br.O=C(OCc1ccc([N+](=O)[O-])cc1)[C@@H]1CCCN1 [Compound 7, L--Pro--OBz (pNO2).HBr] | – | 80 | –
Cc1ccc(S(=O)(=O)O)cc1.NC(Cc1c[nH]cn1)C(=O)OCc1ccc([N+](=O)[O-])cc1 [Compound 8, L--His--OBz (pNO2) pTS] | – | 70 | –
Br.C[C@H](N)C(=O)N[C@@H](Cc1ccccc1)C(=O)OCc1ccccc1 [Compound 9, L--Ala--L--Phe--OBz.HBr] | – | 90 | –
Br.NCC(=O)N[C@@H](Cc1ccccc1)C(=O)OCc1ccccc1 [Compound 10, L--Gly--L--Phe--OBz.HBr] (HELM PEPTIDE1{G.F.[c1ccc(CO[*:1])cc1]}$$$$V2.0) | – | 90 | –
N[C@@H](Cc1ccccc1)C(=O)NCc1ccccc1 [Compound 11, L--Phe--Benzyl amide] | – | 70 | –
CC(C)[C@H](N)C(=O)OCc1ccccc1 [Compound 12, L--Val--OBz] | – | 50 | –
CC(C)C[C@H](N)C(=O)OCc1ccccc1 [Compound 13, L--Leu--OBz] | – | 55 | –
Br.CC(NC(=O)C(N)Cc1ccccc1)C(=O)OCc1ccccc1 [Compound 14, L--Phe--L--Ala--OBz.HBr] | – | 70 | –
Br.NCCCC[C@H](NC(=O)[C@@H](N)Cc1c[nH]c2ccccc12)C(=O)OCc1ccccc1 [Compound 15, L--Try--Lys--OBz.HBr] (HELM PEPTIDE1{W.K.[c1ccc(CO[*:1])cc1]}$$$$V2.0) | – | 70 | –
Cl.N[C@H](Cc1ccccc1)C(=O)OCc1ccccc1 [Compound 16, D--Phe--OBz.HCl] | – | 90 | moles of compound to one mole of HbS at which gelation of HbS is inhibited (purified HbS): 6 moles to one mole HbS
CCCCCCCCCCCCCCCCCCOC(=O)[C@@H](N)Cc1ccc(O)cc1.Cl [Compound 17, L--Tyr--O Octadecyl.HCl, reference compound] | – | 10 | –
N[C@@H](Cc1ccccc1)C(=O)O [Compound 18, L--Phe, reference compound] | – | 0 | –
NCCSSCCN [Cystamine] | 220 | – | –
CC(=O)Oc1c(Br)cc(Br)cc1C(=O)O [Dibromo aspirin] | 5 | – | –
COC(=N)CCCCC(=N)OC [Dimethyl Adipimidate] | 10 | – | –
N#C[O-].[K+] [Potassium Cyanate] | 100 | – | –
Cc1ncc(CO)c(C=O)c1O [Pyridoxal] | 20 | – | –
NC(N)=O [Urea] | 100 | – | –
